Source: patent US6906098B2, “Mixed steroidal 1,2,4,5-tetraoxane compounds and methods of making and using thereof” (priority 2002, dated 2005)
≈ marks a conversion by molar mass, not a printed value. Where “and” joins values, the source holds several entries; their conditions need not be identical. Equal values may be shown once. Read-outs that look alike come from different tables or passages of the source.

Legend:
[1] = system: VERO cells; experiment: cells; conditions: Chlorocebus sabaeus, Table 5
[2] = system: Plasmodium falciparum chloroquine-susceptible strain D6; experiment: In vitro antimalarial drug susceptibility assay (radiolabeled hypoxanthine incorporation), strain D6; type: cell-based; conditions: for IC50: Plasmodium falciparum, D6, 66 h, read-out: Strain D6 IC50, growth inhibition, chloroquine-susceptible strain D6, 66 h incubation; for Strain D6 IC50: growth inhibition, chloroquine-susceptible strain D6, 66 h incubation
[3] = system: D6 and W2 P. falciparum clones; type: cell-based, Plasmodium falciparum; conditions: IC50 (W2)/IC50 (D6) ratio
[4] = system: M. tuberculosis H37Rv; experiment: Minimum inhibitory concentration (MIC) in the MABA; type: cell-based, Mycobacterium tuberculosis
Protocol: (§1) The activity of the compounds of the present invention against Mycobacterium tuberculosis was determined using the following assays conducted by the National Institute of Allergy and Infectious Diseases (NIAID) supports a TB drug acquisition and screening program, the TAACF.
2. Minimum Inhibitory Concentration (MIC)
The MIC is defined as the lowest concentration effecting a reduction in fluorescence of 90% relative to controls. Minimum compound requirements: 1.0 mg.

[5] = system: Plasmodium falciparum chloroquine-resistant strain W2; experiment: microbe, parasite or virus in culture; type: cell-based; conditions: for IC50: Plasmodium falciparum, W2, 66 h, read-out: Strain W2 IC50, growth inhibition, chloroquine-resistant strain W2, 66 h incubation; for Strain W2 IC50: growth inhibition, chloroquine-resistant strain W2, 66 h incubation
[6] = system: VERO cells; conditions: for IC50: Table 5, VERO cells
[7] = system: Mycobacterium tuberculosis H37Rv (ATCC 27294); experiment: Primary screen, Microplate Alamar Blue Assay (MABA), percent inhibition; type: cell-based; conditions: primary screening at 6.25 μg/ml; for inhibition at 6.25 µg/mL: Mycobacterium tuberculosis, read-out: % Inhib; for inhibition at 6.25 µg/mL / % Inhib: Table 5, Alamar assay
Protocol: as §1
To determine the percent inhibition the following assay was conducted. Primary screening was conducted at 6.25 μg/ml (or the molar equivalent of highest molecular weight compound in a given series of congeners) against Mycobacterium tuberculosis H37Rv (ATCC 27294) in BACTEC 12B medium using the Microplate Alamar Blue Assay (MABA). See Collins, L. and S. G. Franzblau. 1997. Microplate alamar blue assay versus BACTEC 460 system for high-throughput screening of compounds against Mycobacterium tuberculosis and Mycobacterium avium. Antimicrob Agents Chemother 41:1004-9, which is herein incorporated by reference.
Minimum compound requirements: 1.0 mg.

[8] = Mycobacterium tuberculosis, H37RV, Table 5, Alamar assay, M. tuberculosis H37Rv, read-out: MIC
[9] = ratio of IC50 in VERO cells to MIC (M. tuberculosis H37Rv)
[10] = Table 5, Alamar assay, M. tuberculosis H37Rv

SMILES	IC50 [1]	IC50 [2]	Resistance Index [3]	MIC [4, 8]	IC50 [5]	SI (selectivity index) [6, 9]	inhibition at 6.25 µg/mL [7]	MIC ([4]; Mycobacterium tuberculosis, H37RV, Table 3, H37Rv, read-out: MIC)	SI (selectivity index) [6]	MIC [4, 10]	Resistance Index ([3]; listed as 12)	Strain D6 IC50 [2]	Strain W2 IC50 [5]	IC50 [6]	% Inhib [7]	MIC ([4]; Table 3, H37Rv)	Inhibition (%) ([7]; Table 3, H37Rv)
CC(=O)O[C@H]1CC2C(C3CC[C@H](C(C)CCC(N)=O)[C@]31C)[C@H](OC(C)=O)C[C@@H]1CC3(CC[C@]21C)OOC1(CCCCC1)OO3 (stereo partly drawn) [10/1C19, 7α,12α-Diacetoxy-5β-cholan-24-amide-3-spiro-6′-(1′,2′,4′,5′-tetraoxacyclohexane)-3′-spirocyclohexane]	4.94 µg/mL (≈ 7.97 µM)	0.00733 µg/mL (≈ 0.0118 µM)	0.40	6.25 µg/mL (≈ 10.1 µM)	0.00294 µg/mL (≈ 0.00474 µM)	0.79	99%	–	–	–	–	–	–	–	–	–	–
NNC(=O)c1ccncc1 [Isoniazid, reference compound]	> 1000 µg/mL	–	–	0.025 to 0.05 µg/mL (≈ 0.182 to 0.365 µM)	–	–	–	0.05 µg/mL and 0.36 µM	> 40,000	–	–	–	–	–	–	–	–
CNC(=O)CCC(C)[C@H]1CCC2C3C(C[C@H](OC(C)=O)[C@@]21C)[C@@]1(C)CCC2(C[C@H]1C[C@H]3OC(C)=O)OOC1(CCCCC1C)OO2 (stereo partly drawn) [14/1C23, N-Methyl-7α,12α-diacetoxy-5β-cholan-24-amide-3-spiro-6′-(1′,2′,4′,5′-tetraoxacyclohexane)-3′-spiro-1″-(2″-methyl)cyclohexane]	5.63 µg/mL (≈ 8.69 µM)	0.0102 µg/mL (≈ 0.0158 µM)	0.64	3.13 µg/mL (≈ 4.83 µM)	0.00649 µg/mL (≈ 0.01 µM)	1.8	99%	–	–	–	–	–	–	–	–	–	–
CCNC(=O)CCC(C)[C@H]1CCC2C3C(C[C@H](OC(C)=O)[C@@]21C)[C@@]1(C)CCC2(C[C@H]1C[C@H]3OC(C)=O)OOC1(CCC(CC)CC1)OO2 (single isomer, unassigned) [27/1C37, N-Ethyl-7α,12α-Diacetoxy-5β-cholan-24-amide-3-spiro-6′-(1′,2′,4′,5′-tetraoxacyclohexane)-3′-spiro-1″-((4″R or S)-ethyl)cyclohexane]	1.91 µg/mL (≈ 2.83 µM)	0.0134 µg/mL (≈ 0.0198 µM)	0.48	–	0.00646 µg/mL (≈ 0.00956 µM)	1.22	96%	–	–	1.56 µg/mL (≈ 2.31 µM)	–	–	–	–	–	–	–
COC(=O)CNC(=O)CCC(C)[C@H]1CCC2C3C(C[C@H](OC(C)=O)[C@@]21C)[C@@]1(C)CCC2(C[C@H]1C[C@H]3OC(C)=O)OOC1(CCCCC1)OO2 (stereo partly drawn) [12/1C21, N-(Methyl ethanoate-2-yl)-7α,12α-diacetoxy-5β-cholan-24-amide-3-spiro-6′-(1′,2′,4′,5′-tetraoxacyclohexane)-3′-spirocyclohexane]	5.42 µg/mL (≈ 7.83 µM)	0.0152 µg/mL (≈ 0.022 µM)	0.49	6.25 µg/mL (≈ 9.03 µM)	0.00745 µg/mL (≈ 0.0108 µM)	0.87	99%	–	–	–	ca. 0.5	–	–	–	–	–	–
CCC1CCC2(CC1)OOC1(CC[C@]3(C)C4C[C@H](OC(C)=O)[C@@]5(C)C(CC[C@@H]5C(C)CCC(=O)NC)C4[C@H](OC(C)=O)C[C@@H]3C1)OO2 (single isomer, unassigned) [30/1C41, N-Methyl-7α,12α-Diacetoxy-5β-cholan-24-amide-3-spiro-6′-(1′,2′,4′,5′-tetraoxacyclohexane)-3′-spiro-1″-((4″S or R)-ethyl)cyclohexane]	–	–	0.22	–	–	0.50	–	–	–	3.13 µg/mL (≈ 4.73 µM)	–	0.0185 µg/mL	0.00407 µg/mL	1.59 µg/mL (≈ 2.4 µM)	99%	–	–
CCCNC(=O)CCC(C)[C@H]1CCC2C3C(C[C@H](OC(C)=O)[C@@]21C)[C@@]1(C)CCC2(C[C@H]1C[C@H]3OC(C)=O)OOC1(CCC(CC)CC1)OO2 (single isomer, unassigned) [28/1C38, N-(n-Propyl)-7α,12α-Diacetoxy-5β-cholan-24-amide-3-spiro-6′-(1′,2′,4′,5′-tetraoxacyclohexane)-3′-spiro-1″-((4″R or S)-ethyl)cyclohexane]	2.28 µg/mL (≈ 3.3 µM)	–	0.54	6.25 µg/mL (≈ 9.06 µM)	–	0.36	–	–	–	–	–	0.00576 µg/mL	0.00312 µg/mL	–	92%	–	–
CCC1CCC2(CC1)OOC1(CC[C@]3(C)C4C[C@H](OC(C)=O)[C@@]5(C)C(CC[C@@H]5C(C)CCC(=O)O)C4[C@H](OC(C)=O)C[C@@H]3C1)OO2 (single isomer, unassigned) [9j/1C39, 7α,12α-Diacetoxy-5β-cholan-24-oic acid-3-spiro-6′-(1′,2′,4′,5′-tetraoxacyclohexane)-3′-spiro-1″-((4″S or R)-ethyl)cyclohexane]	0.95 µg/mL (≈ 1.46 µM)	–	1.47	–	–	0.15	–	–	–	6.25 µg/mL (≈ 9.63 µM)	–	0.00638 µg/mL	0.00936 µg/mL	–	95%	–	–
CNC(=O)CCC(C)[C@H]1CCC2C3C(C[C@H](OC(C)=O)[C@@]21C)[C@@]1(C)CCC2(C[C@H]1C[C@H]3OC(C)=O)OOC1(CCC(C)CC1)OO2 (stereo partly drawn) [22/1C31, N-Methyl-7α,12α-diacetoxy-5β-cholan-24-amide-3-spiro-6′-(1′,2′,4′,5′-tetraoxacyclohexane)-3′-spiro-1″-((4″S)-methyl)cyclohexane]	–	–	0.71	–	–	0.29	–	–	–	6.25 µg/mL (≈ 9.65 µM)	–	0.01079 µg/mL	0.00769 µg/mL	1.83 µg/mL (≈ 2.82 µM)	99%	–	–
CC(=O)O[C@H]1CC2C(C3CC[C@H](C(C)CCC(N)=O)[C@]31C)[C@H](OC(C)=O)C[C@@H]1CC3(CC[C@]21C)OOC1(CCC(C)CC1)OO3 (stereo partly drawn) [21/1C30, 7α,12α-Diacetoxy-5β-cholan-24-amide-3-spiro-6′-(1′,2′,4′,5′-tetraoxacyclohexane)-3′-spiro-1″-((4″S)-methyl)cyclohexane]	–	–	0.70	–	–	0.39	–	–	–	6.25 µg/mL (≈ 9.86 µM)	–	0.0127 µg/mL	0.00894 µg/mL	2.43 µg/mL (≈ 3.83 µM)	99%	–	–
CCC1CCC2(CC1)OOC1(CC[C@]3(C)C4C[C@H](OC(C)=O)[C@@]5(C)C(CC[C@@H]5C(C)CCC(N)=O)C4[C@H](OC(C)=O)C[C@@H]3C1)OO2 (single isomer, unassigned) [25/1C35, 7α,12α-Diacetoxy-5β-cholan-24-amide-3-spiro-6′-(1′,2′,4′,5′-tetraoxacyclohexane)-3′-spiro-1″-((4″R or S)-ethyl)cyclohexane]	4.65 µg/mL (≈ 7.18 µM)	–	1.27	3.13 µg/mL (≈ 4.83 µM)	0.00693 µg/mL (≈ 0.0107 µM)	1.48	100%	–	–	–	–	0.00544 µg/mL	–	–	–	–	–
CCCNC(=O)CCC(C)[C@H]1CCC2C3C(C[C@H](OC(C)=O)[C@@]21C)[C@@]1(C)CCC2(C[C@H]1C[C@H]3OC(C)=O)OOC1(CCC(c3ccccc3)CC1)OO2 (single isomer, unassigned) [Compound 1C53, N-(n-Propyl)-7α,12α-Diacetoxy-5β-cholan-24-amide-3-spiro-6′-(1′,2′,4′,5′-tetraoxacyclohexane)-3′-spiro-1″-((4″S or R)-phenyl)cyclohexane]	–	–	1.01	–	–	–	–	–	–	>6.25 µg/mL	–	0.02428 µg/mL	0.02454 µg/mL	–	59%	>6.25 µg/mL	59%
